Consider 1 molecule from US9096534B2, “Pyridazinone compound and use thereof” (SUMITOMO CHEMICAL COMPANY, LIMITED, priority 2006, dated 2015).

The test system of one assay is Lolium multiflorum. As to the kind of experiment: Post-emergence treatment test in dry field. Format: in vivo. As to conditions: 500 g/ha; foliar spray at first to second leaf stage; 20 days after treatment; 0 = no effect, 10 = complete death. The method, then: A plastic cup with a diameter of 8 cm and a depth of 6.5 cm was filled with commercially available soil, onto which seeds of Lolium multiflorum were sowed, covered with soil about 0.5 cm high and then grown in a greenhouse. When the plants were grown in first to second leaf stage, a prescribed dosage of a dilute liquid formulation comprising Compound I-a-1 was sprayed to whole plants uniformly. The dilute liquid formulation was prepared by dissolving a prescribed amount of Compound I-a-1 in a dimethylformamide solution (2%) of Tween 20 (polyoxyethylene sorbitan fatty acid ester, from MP Biomedicals, Inc.) and then diluting with deionized water. The plants after treatment with the liquid formulation were grown in a greenhouse and 20 days after the treatment, the efficacy of the compound against Lolium multiflorum was visually evaluated by rating in eleven levels from 0 to 10 (assigned as 0 for no effect and 10 for complete death while values falling in between these values were rated from 1 to 9 levels accordingly).
The other present compounds and Compound A described in J. Heterocycl. Chem., vol. 42, pp. 427-435 (2005) as a comparative example were similarly tested.

In the next assay the test system is Apera spica-venti. Description: Pre-emergence treatment test in dry field. In kind it is in vivo. The conditions noted are these: 500 g/ha; sprayed to soil surface after sowing; three weeks after treatment; 0 = no effect, 10 = complete death. Here is the method:
A plastic container (32 cm×22 cm×8 cm in height) was filled with soil sterilized by steam, onto which seeds of Apera spica-venti were sowed and covered with soil about 0.5 cm high. A prescribed dosage of a dilute liquid formulation comprising Compound I-a-1 was sprayed to the soil surface uniformly. The dilute liquid formulation was prepared by the method similar to that in Test example 1. The plants after treatment with the liquid formulation were grown in a greenhouse and three weeks after the treatment, the efficacy of the compound against Apera spica-venti was visually evaluated by rating in eleven levels from 0 to 10 similarly to Test example 1.
The other present compounds and Compound A as a comparative example were similarly tested.

Turning to `Cc1ccccc1-c1c(O)cnn(C)c1=O` [Compound A], the “efficacy against Lolium multiflorum, visually evaluated by rating in eleven levels from 0 to 10” value with Lolium multiflorum amounted to 1. Moreover, in the assay on Apera spica-venti, the “efficacy against Apera spica-venti, visually evaluated by rating in eleven levels from 0 to 10” value is listed as 1.
